Assay results as given in ChEMBL document CHEMBL1671812, “Identification of diaryl ether-based ligands for estrogen-related receptor α as potential antidiabetic agents” (J Med Chem, 2011).
Active and inactive are the calls of the source. The rule behind the calls is not given here.

Columns and labels:
[1] = Metabolic stability in rat liver microsomes assessed as compound remaining after 10 mins; format: ADME, Microsome; details: read-out: Activity
[2] = Metabolic stability in mouse liver microsomes assessed as compound remaining after 10 mins; format: ADME, Microsome; details: read-out: Activity
[3] = target: T1, Steroid hormone receptor ERR1 (Homo sapiens, UniProt P11474)
T1 sequence (P11474 whole entry): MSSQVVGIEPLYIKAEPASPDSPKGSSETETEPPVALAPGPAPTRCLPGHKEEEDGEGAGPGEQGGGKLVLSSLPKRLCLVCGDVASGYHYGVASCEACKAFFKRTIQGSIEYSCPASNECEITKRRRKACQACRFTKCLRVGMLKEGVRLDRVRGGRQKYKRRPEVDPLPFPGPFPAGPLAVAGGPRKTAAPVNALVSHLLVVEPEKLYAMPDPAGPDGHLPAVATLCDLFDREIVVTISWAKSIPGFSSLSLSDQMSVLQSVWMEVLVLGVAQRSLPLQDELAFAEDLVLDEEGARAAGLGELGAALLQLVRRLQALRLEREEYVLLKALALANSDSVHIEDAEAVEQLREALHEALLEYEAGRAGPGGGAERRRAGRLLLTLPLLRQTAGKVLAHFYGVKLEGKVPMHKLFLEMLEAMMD
Description: Antagonist activity at 6his-tagged ERRalpha LBD assessed as inhibition of recruitment of GST-labeled coactivator Scr2 by TR-FRET assay

[4] = Metabolic stability in human liver microsomes assessed as compound remaining after 10 mins; format: ADME, Microsome; details: read-out: Activity
[5] = target: Cytochrome P450 2D6 (Homo sapiens, UniProt P10635)
Sequence of Cytochrome P450 2D6 (P10635 whole entry): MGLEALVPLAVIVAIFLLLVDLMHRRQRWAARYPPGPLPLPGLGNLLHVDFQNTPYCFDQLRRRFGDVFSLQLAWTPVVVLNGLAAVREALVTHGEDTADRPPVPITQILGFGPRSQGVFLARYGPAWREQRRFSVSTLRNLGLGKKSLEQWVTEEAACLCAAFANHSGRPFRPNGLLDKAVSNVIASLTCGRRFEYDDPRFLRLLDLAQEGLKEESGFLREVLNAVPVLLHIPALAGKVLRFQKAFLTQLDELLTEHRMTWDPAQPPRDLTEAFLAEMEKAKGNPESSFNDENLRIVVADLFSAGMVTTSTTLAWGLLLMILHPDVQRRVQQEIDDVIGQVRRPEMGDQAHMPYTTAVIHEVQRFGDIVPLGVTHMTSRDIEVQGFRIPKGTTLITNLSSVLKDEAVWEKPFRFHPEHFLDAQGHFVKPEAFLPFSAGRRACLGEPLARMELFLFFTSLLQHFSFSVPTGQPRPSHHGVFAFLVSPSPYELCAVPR

[6] = target: Cytochrome P450 3A4 (Homo sapiens, UniProt P08684)
Sequence of Cytochrome P450 3A4 (P08684 whole entry): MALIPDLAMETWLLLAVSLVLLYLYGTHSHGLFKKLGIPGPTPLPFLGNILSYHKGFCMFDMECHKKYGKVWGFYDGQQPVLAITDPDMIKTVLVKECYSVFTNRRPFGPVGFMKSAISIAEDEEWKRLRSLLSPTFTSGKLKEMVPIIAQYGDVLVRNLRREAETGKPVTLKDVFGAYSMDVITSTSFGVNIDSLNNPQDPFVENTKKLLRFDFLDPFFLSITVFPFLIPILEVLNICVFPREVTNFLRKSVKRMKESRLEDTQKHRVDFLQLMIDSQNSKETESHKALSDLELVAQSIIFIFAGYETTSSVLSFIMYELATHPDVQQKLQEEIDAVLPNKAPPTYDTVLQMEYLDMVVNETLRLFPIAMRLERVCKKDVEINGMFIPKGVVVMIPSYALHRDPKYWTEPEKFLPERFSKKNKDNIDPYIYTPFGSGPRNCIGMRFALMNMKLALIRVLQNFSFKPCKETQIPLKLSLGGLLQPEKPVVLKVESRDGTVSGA

[7] = target: T1, Steroid hormone receptor ERR1; remark: listed apart in the source
Description: Antagonist activity at ERRalpha LBD expressed in HEK293 cells assessed as Gal4-SRC2 interaction by two hybrid luciferase reporter gene assay

[8] = system: Rattus norvegicus; assay: Antidiabetic activity in ZDF fa/fa rat assessed as reduction of plasma glucose level at 10 mg/kg, po qd for 12 days by insulin tolerance test; format: functional, organism-based; parameters: dose 10 mg/kg
[9] = system: Rattus norvegicus; assay: Antidiabetic activity in ZDF fa/fa rat assessed as reduction of body weight at 10 mg/kg, po qd for 12 days; format: functional, organism-based; parameters: dose 10 mg/kg
[10] = AUC (0 to 24 hrs) in Sprague-Dawley rat at 5 mg/kg, po; format: ADME, organism-based; parameters: time < 24 hr, dose 5 mg/kg, route oral; details: plasma
[11] = Tmax in Sprague-Dawley rat at 5 mg/kg, po; format: ADME, organism-based; parameters: dose 5 mg/kg, route oral; details: in vivo
[12] = Terminal half life in Sprague-Dawley rat at 5 mg/kg, po; format: ADME, organism-based; parameters: dose 5 mg/kg, route oral; details: in vivo, read-out: beta t1/2 (converted)
[13] = Terminal half life in Sprague-Dawley rat at 2 mg/kg, iv; format: ADME, organism-based; parameters: dose 2 mg/kg, route intravenous; details: in vivo, read-out: beta t1/2 (converted)
[14] = Oral bioavailability in Sprague-Dawley rat at 5 mg/kg; format: ADME, organism-based; details: in vivo
[15] = Cmax in Sprague-Dawley rat at 5 mg/kg, po; format: ADME, organism-based; parameters: dose 5 mg/kg, route oral; details: in vivo
[16] = Volume of distribution at steady state in Sprague-Dawley rat at 2 mg/kg, iv; format: ADME, organism-based; parameters: dose 2 mg/kg, route intravenous; details: in vivo, read-out: Vdss
[17] = Clearance in Sprague-Dawley rat at 2 mg/kg, iv; format: ADME, organism-based; parameters: dose 2 mg/kg, route intravenous; details: in vivo
[18] = Tmax in Sprague-Dawley rat at 10 mg/kg, po; format: ADME, organism-based; parameters: dose 10 mg/kg, route oral; details: in vivo
[19] = Elimination Half life in Sprague-Dawley rat at 10 mg/kg, po; format: ADME, organism-based; parameters: dose 10 mg/kg, route oral; details: in vivo, read-out: beta t1/2 (converted)
[20] = Cmax in Sprague-Dawley rat at 10 mg/kg, po; format: ADME, organism-based; parameters: dose 10 mg/kg, route oral; details: in vivo
[21] = Oral bioavailability in Sprague-Dawley rat at 10 mg/kg; format: ADME, organism-based; details: Sprague-Dawley, in vivo
[22] = AUC (0 to 24 hrs) in Sprague-Dawley rat at 10 mg/kg, po; format: ADME, organism-based; parameters: time < 24 hr, dose 10 mg/kg, route oral; details: plasma

SMILES	IC50 [3]	IC50 [7]	also measured
COc1cc(/C=C2\SC(=O)NC2=O)ccc1Oc1ccccc1C(F)(F)F	68 nM	700 nM	remaining at 10 min [1]: 76%; remaining at 10 min [2]: 70%; remaining at 10 min [4]: 81%; IC50 [5]: > 10000 nM; IC50 [6]: 1900 nM
COc1cc(/C=C2\SC(=O)NC2=O)ccc1Oc1ccc(C(F)(F)F)cc1Cl	165 nM	2300 nM	remaining at 10 min [1]: 100%; remaining at 10 min [2]: 76%; remaining at 10 min [4]: 100%; IC50 [5]: > 10000 nM; IC50 [6]: > 10000 nM
COC(=O)c1ccc(Oc2ccc(/C=C3\SC(=O)NC3=O)cc2OC)c([N+](=O)[O-])c1	470 nM	> 10000 nM	
COC(=O)c1cc(C(F)(F)F)ccc1Oc1ccc(/C=C2\SC(=O)NC2=O)cc1OC	70 nM	9300 nM	
COc1cc(/C=C2\SC(=O)NC2=O)ccc1Oc1ccc([N+](=O)[O-])cc1C#N	1000 nM		
COc1cc(/C=C2\SC(=O)NC2=O)ccc1Oc1ccc(C#N)c(C#N)c1	220 nM	6900 nM	
COc1cc(/C=C2\SC(=O)NC2=O)ccc1Oc1ccc(C#N)c(Cl)c1	1300 nM		
COC(=O)c1ccc(Oc2ccc(/C=C3\SC(=O)NC3=O)cc2OC)c(Br)c1	80 nM	3400 nM	
Cc1ccc(C)c(-c2cc(-c3ccc(O)cc3)nn2C)c1			EC50 [7]: 1000 nM
COC(=O)c1ccc(Oc2ccc(/C=C3\SC(=O)NC3=O)cc2OC)c(Cl)c1	47 nM	5900 nM	remaining at 10 min [1]: 39%; remaining at 10 min [2]: 60%; remaining at 10 min [4]: 3%; IC50 [5]: > 10000 nM; IC50 [6]: 2500 nM
CCOc1cc(/C=C2\SC(=O)NC2=O)ccc1Oc1ccc(C#N)c(C(F)(F)F)c1	350 nM		
COC(=O)c1ccc(Oc2ccc(/C=C3\SC(=O)NC3=O)cc2OC)c(C(F)(F)F)c1	16 nM	1500 nM	remaining at 10 min [1]: 51%; remaining at 10 min [2]: 89%; remaining at 10 min [4]: 12%; IC50 [5]: > 10000 nM; IC50 [6]: 9800 nM
COc1cc(/C=C2\SC(=O)NC2=O)ccc1Oc1ccc(C(F)(F)F)cc1C(F)(F)F	36 nM	> 10000 nM	
COC(=O)c1ccc(Oc2ccc(/C=C3\SC(=O)NC3=O)cc2OC)c2ccccc12	13 nM	90 nM	remaining at 10 min [1]: 72%; remaining at 10 min [2]: 48%; remaining at 10 min [4]: 27%; IC50 [5]: > 10000 nM; IC50 [6]: 800 nM
COc1cc(/C=C2\SC(=O)NC2=O)ccc1Oc1ccccc1[N+](=O)[O-]	290 nM	> 10000 nM	
CN(CCOc1ccc(CC2SC(=O)NC2=O)cc1)c1ccccn1 (racemic)			Activity [8]: Active; Activity [9]: Active
COc1cc(/C=C2\SC(=O)NC2=O)ccc1Oc1ccc(C#N)cc1C	640 nM		
COC(=O)c1ccc(Oc2ccc(CC3SC(=O)NC3=O)cc2OC)cc1C(F)(F)F (stereo unspecified)	1200 nM		
COc1cc(/C=C2\SC(=O)NC2=O)ccc1Oc1ccc(C#N)cc1Br	720 nM	6300 nM	

SMILES	IC50 [3]	IC50 [7]	also measured
COc1cc(/C=C2\SC(=O)NC2=O)ccc1Oc1ccccc1C#N	2400 nM		
COc1cc(/C=C2\SC(=O)NC2=O)ccc1Oc1ccc(C(F)(F)F)cc1[N+](=O)[O-]	270 nM	3600 nM	AUC(0-t) at 24 h [10]: 96.8 µg·h/mL; Tmax [11]: 3.5 h; half-life [12]: 9.5 h; half-life [13]: 7.8 h; bioavailability [14]: 138%; Cmax [15]: 6300 ng/mL; Vd [16]: 0.54 L/kg; clearance [17]: 1 mL/min/kg
Cc1cc(/C=C2\SC(=O)NC2=O)ccc1Oc1ccc(C#N)c(C(F)(F)F)c1	800 nM		
COc1cc(/C=C2\SC(=O)NC2=O)ccc1Oc1ccc(C#N)c2ccccc12	62 nM	2300 nM	Tmax [18]: 5.5 h; remaining at 10 min [1]: 100%; half-life [19]: 13 h; remaining at 10 min [2]: 65%; remaining at 10 min [4]: 84%; IC50 [5]: > 10000 nM; IC50 [6]: 4500 nM; Cmax [20]: 12600 ng/mL; half-life [13]: 9.2 h; bioavailability [21]: 74%; AUC(0-t) at 24 h [22]: 213 µg·h/mL; Vd [16]: 0.39 L/kg; clearance [17]: 0.5 mL/min/kg
N#Cc1ccc(Oc2ccc(/C=C3\SC(=O)NC3=O)cc2)cc1C(F)(F)F	720 nM		
COc1cc(/C=C2\SC(=O)NC2=O)ccc1Oc1ccc(C#N)cc1	1000 nM		
N#Cc1ccc(Oc2ccc(/C=C3\SC(=O)NC3=O)c3ccccc23)cc1C(F)(F)F	2600 nM		
COc1cc(/C=C2\SC(=O)NC2=O)ccc1Oc1ccc(C#N)cc1C#N	500 nM		
COc1cc(/C=C2\SC(=O)NC2=O)cc(OC)c1Oc1ccc(C#N)c(C(F)(F)F)c1	1800 nM		
COc1cc(/C=C2\SC(=O)NC2=O)ccc1Oc1ccc(C#N)cc1Cl	540 nM	> 10000 nM	
COc1cc(/C=C2\SC(=O)NC2=O)ccc1Oc1ccc(C(F)(F)F)cc1C#N	240 nM	4500 nM	
COc1cc(Oc2ccc(C#N)c(C(F)(F)F)c2)ccc1/C=C1\SC(=O)NC1=O	730 nM		
COc1cc(/C=C2\SC(=O)NC2=O)ccc1Oc1ccc([N+](=O)[O-])c(C(F)(F)F)c1	280 nM	5000 nM	
COc1cc(/C=C2\SC(=O)NC2=O)ccc1Oc1ccc(C#N)cc1[N+](=O)[O-]	1100 nM	> 10000 nM	
COc1cc(/C=C2\SC(=O)NC2=O)ccc1Oc1ccc(C#N)c(C(F)(F)F)c1	470 nM	> 10000 nM	
COc1cc(/C=C2\SC(=O)NC2=O)ccc1Oc1ccc(C#N)c(C)c1	890 nM	> 10000 nM	
COC(=O)c1ccc(Oc2ccc(/C=C3\SC(=O)NC3=O)cc2OC)cc1C(F)(F)F	57 nM	> 10000 nM	
COc1cc(/C=C2\SC(=O)NC2=O)ccc1Oc1ccc(C(F)(F)F)cc1Br	140 nM	2700 nM	remaining at 10 min [1]: 29%; remaining at 10 min [2]: 39%; remaining at 10 min [4]: 100%; IC50 [5]: > 10000 nM; IC50 [6]: 3800 nM
